Results taken from ChEMBL document CHEMBL4828727, “Antibacterial and antitumoral properties of 1,2,3-triazolo fused triterpenes and their mechanism of inhibiting the proliferation of HL-60 cells” (Eur J Med Chem, 2021).
Converted amounts (≈) assume the structure as drawn. The source made the active and inactive calls. The rule behind the calls is not given here.

Experiments:
[1] = test system: NCI-H460; assay: cells; assay type: functional, cell-based; conditions: Homo sapiens, NCI-H460, 72 h
Description: Antiproliferative activity against human NCI-H460 cells assessed as inhibition of cell viability measured after 72 hrs by colorimetric MTS viability assay

[2] = test system: Escherichia coli; assay: Antibacterial activity against Escherichia coli ATCC47076 assessed as growth inhibition after 20 hrs by broth microdilution method; assay type: functional
[3] = test system: HCT-116; assay: Antiproliferative activity against human HCT-116 cells assessed as inhibition of cell viability measured after 72 hrs by colorimetric MTS viability assay; assay type: functional, cell-based; conditions: HCT-116, 72 h
[4] = test system: CAPAN-1; assay: cells; assay type: functional, cell-based; conditions: Homo sapiens, CAPAN-1, 72 h
Description: Antiproliferative activity against human CAPAN-1 cells assessed as inhibition of cell viability measured after 72 hrs by colorimetric MTS viability assay

[5] = Antiproliferative activity against human HAP1 cells assessed as inhibition of cell viability measured after 72 hrs by colorimetric MTS viability assay; assay type: functional, cell-based; conditions: HAP1, 72 h
[6] = test system: LN-229; assay: Antiproliferative activity against human LN-229 cells assessed as inhibition of cell viability measured after 72 hrs by colorimetric MTS viability assay; assay type: functional, cell-based; conditions: LN-229, 72 h
[7] = test system: Listeria innocua; assay: Antibacterial activity against Listeria innocua LMG11387 assessed as growth inhibition after 20 hrs by broth microdilution method; assay type: functional
[8] = test system: Staphylococcus aureus; assay: Antibacterial activity against Staphylococcus aureus ATCC65385 assessed as growth inhibition after 20 hrs by broth microdilution method; assay type: functional
[9] = test system: HL-60; assay: cells; assay type: functional, cell-based; conditions: Homo sapiens, HL-60, 72 h
Description: Antiproliferative activity against human HL-60 cells assessed as inhibition of cell viability measured after 72 hrs by real-time IncuCyte proliferation analysis

[10] = test system: Z-138; assay: cells; assay type: functional, cell-based; conditions: Homo sapiens, Z-138, 72 h
Description: Antiproliferative activity against human Z138 cells assessed as inhibition of cell viability measured after 72 hrs by real-time IncuCyte proliferation analysis

[11] = test system: K562; assay: cells; assay type: functional, cell-based; conditions: Homo sapiens, K562, 72 h
Description: Antiproliferative activity against human K562 cells assessed as inhibition of cell viability measured after 72 hrs by real-time IncuCyte proliferation analysis

[12] = Antiproliferative activity against human DND41 cells assessed as inhibition of cell viability measured after 72 hrs by real-time IncuCyte proliferation analysis; assay type: functional, cell-based; conditions: DND41, 72 h
[13] = test system: Salmonella enterica subsp. enterica; assay: Antibacterial activity against Salmonella enterica subsp.enterica ATCC13076 assessed as growth inhibition after 20 hrs by broth microdilution method; assay type: functional
[14] = test system: Jurkat; assay: cells; assay type: functional, cell-based; conditions: Homo sapiens, 72 h
Description: Cytotoxicity against human Jurkat cells assessed as inhibition of cell viability measured after 72 hrs by real-time IncuCyte proliferation analysis

[15] = test system: MV4-11; assay: cells; assay type: functional, cell-based; conditions: Homo sapiens, MV4-11, 72 h
Description: Cytotoxicity against human MV4-11cells assessed as inhibition of cell viability measured after 72 hrs by real-time IncuCyte proliferation analysis

[16] = test system: Rec1; assay: cells; assay type: functional, cell-based; conditions: Homo sapiens, Rec1, 72 h
Description: Cytotoxicity against human REC1 cells assessed as inhibition of cell viability measured after 72 hrs by real-time IncuCyte proliferation analysis

| SMILES | IC50 [1] [µM] | MIC50 [2] | IC50 [3] [µM] | IC50 [4] [µM] | IC50 [5] [µM] | IC50 [6] [µM] | MIC50 [7] | MIC50 [8] | IC50 [9] [µM] | IC50 [10] [µM] | IC50 [11] [µM] | IC50 [12] [µM] | MIC50 [13] | IC50 [14] [µM] | IC50 [15] [µM] | IC50 [16] [µM] |
| --- | --- | --- | --- | --- | --- | --- | --- | --- | --- | --- | --- | --- | --- | --- | --- | --- |
| C=C(C)[C@@H]1CC[C@]2(CO)CC[C@]3(C)[C@H](CC[C@@H]4[C@@]5(C)Cc6nnn(Cc7cccc8[nH]ccc78)c6C(C)(C)[C@@H]5CC[C@]43C)[C@@H]12 | > 100 | 99.8 µg/mL (≈ 168 µM) | > 100 | > 100 | > 100 | > 100 | 379 µg/mL (≈ 636 µM) | inactive | > 100 | > 100 | > 100 | > 100 | 55.5 µg/mL (≈ 93.3 µM) | – | – | – |
| C=C(C)[C@@H]1CC[C@]2(CO)CC[C@]3(C)[C@H](CC[C@@H]4[C@@]5(C)CC[C@H](O)C(C)(C)[C@@H]5CC[C@]43C)[C@@H]12 [BETULIN] | > 100 | inactive | > 100 | > 100 | > 100 | > 100 | 398 µg/mL (≈ 899 µM) | 248 µg/mL (≈ 559 µM) | > 100 | > 100 | > 100 | > 100 | inactive | – | – | – |
| C[C@H]1[C@H](C)CC[C@]2(C(=O)O)CC[C@]3(C)C(=CC[C@@H]4[C@@]5(C)Cc6nnn(Cc7ccc8cc[nH]c8c7)c6C(C)(C)[C@@H]5CC[C@]43C)[C@H]12 | 7.9 | inactive | 11 | 2.6 | 2.3 | 32.2 | 74.4 µg/mL (≈ 122 µM) | 60.5 µg/mL (≈ 99.3 µM) | 3.3 | 10.3 | 53.7 | 13.9 | inactive | 5.2 | 12.6 | 4.9 |
| C=C(C)[C@@H]1CC[C@]2(CO)CC[C@]3(C)[C@H](CC[C@@H]4[C@@]5(C)Cc6nnn(Cc7ccc(OC)cc7)c6C(C)(C)[C@@H]5CC[C@]43C)[C@@H]12 | > 100 | 70.6 µg/mL (≈ 121 µM) | > 100 | > 100 | > 100 | > 100 | inactive | inactive | > 100 | > 100 | > 100 | > 100 | 32.3 µg/mL (≈ 55.1 µM) | – | – | – |
| C=C(C)[C@@H]1CC[C@]2(CO)CC[C@]3(C)[C@H](CC[C@@H]4[C@@]5(C)Cc6nnn(Cc7ccc8[nH]ccc8c7)c6C(C)(C)[C@@H]5CC[C@]43C)[C@@H]12 | > 100 | 96.3 µg/mL (≈ 162 µM) | > 100 | > 100 | > 100 | > 100 | 187 µg/mL (≈ 315 µM) | 345 µg/mL (≈ 580 µM) | > 100 | > 100 | > 100 | > 100 | 62 µg/mL (≈ 104 µM) | – | – | – |
| CC1(C)CC[C@]2(C(=O)O)CC[C@]3(C)C(=CC[C@@H]4[C@@]5(C)Cc6nnn(Cc7cccc8[nH]ccc78)c6C(C)(C)[C@@H]5CC[C@]43C)[C@@H]2C1 | 10.6 | 95.8 µg/mL (≈ 157 µM) | 12.6 | 6.7 | 9.7 | 47.2 | 237 µg/mL (≈ 390 µM) | 180 µg/mL (≈ 296 µM) | 9.7 | 9.9 | 68.2 | 11 | 88.7 µg/mL (≈ 146 µM) | 5.3 | 22.1 | 2.6 |
| CC1(C)CC[C@]2(C(=O)O)CC[C@]3(C)C(=CC[C@@H]4[C@@]5(C)CC[C@H](O)C(C)(C)[C@@H]5CC[C@]43C)[C@@H]2C1 [OLEANOLIC_ACID] | > 100 | 392 µg/mL (≈ 859 µM) | 32.4 | 50.1 | > 100 | > 100 | 21.4 µg/mL (≈ 46.7 µM) | 1.16 µg/mL (≈ 2.54 µM) | 36.4 | > 100 | > 100 | 65.5 | inactive | – | – | – |
| C=C(C)[C@@H]1CC[C@]2(CO)CC[C@]3(C)[C@H](CC[C@@H]4[C@@]5(C)Cc6nnn(CCc7c[nH]c8ccc(OC)cc78)c6C(C)(C)[C@@H]5CC[C@]43C)[C@@H]12 | > 100 | 17.7 µg/mL (≈ 27.7 µM) | > 100 | > 100 | > 100 | > 100 | 429 µg/mL (≈ 672 µM) | inactive | > 100 | > 100 | > 100 | > 100 | 17.3 µg/mL (≈ 27 µM) | – | – | – |
| CC1(C)CC[C@]2(C(=O)O)CC[C@]3(C)C(=CC[C@@H]4[C@@]5(C)Cc6nnn(Cc7ccc8[nH]ccc8c7)c6C(C)(C)[C@@H]5CC[C@]43C)[C@@H]2C1 | 8.3 | 41.6 µg/mL (≈ 68.3 µM) | 12 | 4.1 | 3.3 | 37.7 | 193 µg/mL (≈ 317 µM) | 95.5 µg/mL (≈ 157 µM) | 7 | 10.3 | 86.1 | 12.1 | 33 µg/mL (≈ 54.1 µM) | 3.7 | 12.8 | 2 |
| CC1(C)CC[C@]2(C(=O)O)CC[C@]3(C)C(=CC[C@@H]4[C@@]5(C)Cc6nnn(Cc7ccc8cc[nH]c8c7)c6C(C)(C)[C@@H]5CC[C@]43C)[C@@H]2C1 | > 100 | 40.8 µg/mL (≈ 67.1 µM) | 11 | 9.4 | 9.2 | 44.4 | 90 µg/mL (≈ 148 µM) | 199 µg/mL (≈ 327 µM) | 3.3 | 67.4 | 69.2 | > 100 | 29 µg/mL (≈ 47.6 µM) | 2.2 | 21.5 | 1.8 |
| C=C(C)[C@@H]1CC[C@]2(CO)CC[C@]3(C)[C@H](CC[C@@H]4[C@@]5(C)Cc6nnn(Cc7ccc8cc[nH]c8c7)c6C(C)(C)[C@@H]5CC[C@]43C)[C@@H]12 | > 100 | 84.7 µg/mL (≈ 142 µM) | > 100 | > 100 | > 100 | > 100 | 195 µg/mL (≈ 328 µM) | 233 µg/mL (≈ 392 µM) | > 100 | > 100 | > 100 | > 100 | 43 µg/mL (≈ 72.3 µM) | – | – | – |
| CN[C@@H]1C[C@H]2O[C@@](C)([C@@H]1OC)n1c3ccccc3c3c4c(c5c6ccccc6n2c5c31)C(=O)NC4 [STAUROSPORINE] | – | – | 0.0481 | – | 0.0491 | 0.0097 | – | – | – | – | – | 0.0308 | – | – | – | – |
| O=C(O)c1cn(C2CC2)c2cc(N3CCNCC3)c(F)cc2c1=O [CIPROFLOXACIN] | – | – | – | – | – | – | 138 µg/mL (≈ 416 µM) | 3.41 µg/mL (≈ 10.3 µM) | – | – | – | – | 0.37 µg/mL (≈ 1.12 µM) | – | – | – |
| CC1(C)CC[C@]2(C(=O)O)CC[C@]3(C)C(=CC[C@@H]4[C@@]5(C)Cc6nnn(Cc7ccc(Cl)cc7)c6C(C)(C)[C@@H]5CC[C@]43C)[C@@H]2C1 | > 100 | 34.3 µg/mL (≈ 56.7 µM) | 63.8 | 25.8 | > 100 | 67.1 | 367 µg/mL (≈ 608 µM) | 180 µg/mL (≈ 298 µM) | 56 | 61.5 | > 100 | 64.3 | 25.2 µg/mL (≈ 41.8 µM) | – | – | – |
| C=C(C)[C@@H]1CC[C@]2(CO)CC[C@]3(C)[C@H](CC[C@@H]4[C@@]5(C)Cc6nnn(Cc7ccc(F)cc7)c6C(C)(C)[C@@H]5CC[C@]43C)[C@@H]12 | > 100 | 56.7 µg/mL (≈ 98.8 µM) | > 100 | > 100 | 10.3 | > 100 | inactive | inactive | > 100 | > 100 | > 100 | > 100 | 48.1 µg/mL (≈ 83.8 µM) | – | – | – |
| C=C(C)[C@@H]1CC[C@]2(CO)CC[C@]3(C)[C@H](CC[C@@H]4[C@@]5(C)Cc6nnn(CCc7c[nH]c8ccccc78)c6C(C)(C)[C@@H]5CC[C@]43C)[C@@H]12 | > 100 | > 20.9 µg/mL | > 100 | > 100 | > 100 | > 100 | inactive | inactive | > 100 | > 100 | > 100 | > 100 | 16.6 µg/mL (≈ 27.3 µM) | – | – | – |
| C[C@H]1[C@H](C)CC[C@]2(C(=O)O)CC[C@]3(C)C(=CC[C@@H]4[C@@]5(C)CC[C@H](O)C(C)(C)[C@@H]5CC[C@]43C)[C@H]12 [URSOLIC ACID] | 16.2 | inactive | 17.7 | 8.6 | 71.1 | 47.4 | 27 µg/mL (≈ 59.2 µM) | 1.56 µg/mL (≈ 3.42 µM) | 9.5 | 9.8 | 10.2 | 13.7 | inactive | – | – | – |
